Reference: patent publication US7338950B2, “Amide compounds as ion channel ligands and uses thereof” (Renovis, Inc., priority 2003, dated 2008)

System: VR1 receptor (293 cells expressing capsaicin-insensitive VR1 receptor variants)
Test: High throughput screening of VR1 antagonists using a calcium imaging assay (Fura2, pH 5.1 stimulus);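 also: Fura2 ratiometric fluorescence read every 4 s over 3 min, response taken as peak ratio minus baseline before pre-treatment, compound pre-treatment preceding acid challenge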
Settings: 1 uM compound; inhibition of calcium ion influx
Excerpt: A dual wavelength ratiometric dye, Fura2, was used as an indicator of relative levels of calcium ions in a 96 well format using a bench top scanning fluorometer with integrated fluidics and temperature control (Flex Station, Molecular Devices).
A dual wavelength ratiometric dye, Fura2, was used as an indicator of relative levels of [Ca2+] in a 96 well format using a bench top scanning fluorometer with integrated fluidics and temperature control (Flex Station, Molecular Devices).
293 cells were grown on PDL coated 96-well black-walled plates, in the presence of a DMEM medium containing 5% Penstrep, 5% Glutamax, 200 ug/mL Hygromycin, 5 μg/mL Blasticide and 10% heat inactivated FBS. Prior to assay, the cells were loaded with 5 μg/mL Fura2 in normal saline solution at 37° C. for 40 minutes. Cells were then washed with normal saline to remove the dye.
The assay consists of two stages; a pre-treatment phase followed by a treatment phase.
50 μl of a compound solution was added to the cells (Pre-treatment). Immediately following, 50 μl of the test compound in a saline solution at pH 5.1 was added. […] Changes in wavelength measurements were made throughout the course of the experiment in 4 second intervals over a period of 3 minutes. Responses were measured as peak fluorescence ratio after test compound addition minus baseline fluorescence ratio prior to pre-treatment and were calculated using SoftMaxPro softwareData were expressed as percentage inhibition calculated using Excel as follows:

Structure (SMILES) | % Inhibition @ 1 uM
O=C(Nc1ccc2c(c1)OCCO2)c1ccc(-c2ncccc2Cl)cc1 [Compound 1018] | ++ (compound exhibited 25-50% inhibition of calcium ion influx induced by capsaicin stimulation)
COc1cccc(NC(=O)c2ccc(-c3ncccc3Cl)cc2)c1 [Compound 1019] | + (compound exhibited 0-25% inhibition of calcium ion influx induced by capsaicin stimulation)
O=C(Nc1ccccc1)c1ccc(-c2ncccc2Cl)cc1 [Compound 1020] | + (compound exhibited 0-25% inhibition of calcium ion influx induced by capsaicin stimulation)
O=C(Nc1ccc2[nH]ccc2c1)c1ccc(-c2ncccc2Cl)cc1 [Compound 1021] | ++++ (compound exhibited 75% or greater inhibition of calcium ion influx induced by capsaicin stimulation)
COc1ccc(NC(=O)c2ccc(-c3ncccc3Cl)cc2)cc1 [Compound 1022] | ++ (compound exhibited 25-50% inhibition of calcium ion influx induced by capsaicin stimulation)
O=C(Nc1ccncc1)c1ccc(-c2ncccc2Cl)cc1 [Compound 1024] | ++++ (compound exhibited 75% or greater inhibition of calcium ion influx induced by capsaicin stimulation)
O=C(Nc1cccnc1)c1ccc(-c2ncccc2Cl)cc1 [Compound 1025] | ++++ (compound exhibited 75% or greater inhibition of calcium ion influx induced by capsaicin stimulation)
O=C(Nc1cc[nH]n1)c1ccc(-c2ncccc2Cl)cc1 [Compound 1026] | + (compound exhibited 0-25% inhibition of calcium ion influx induced by capsaicin stimulation)
N#Cc1ccccc1NC(=O)c1ccc(-c2ncccc2Cl)cc1 [Compound 1028] | + (compound exhibited 0-25% inhibition of calcium ion influx induced by capsaicin stimulation)
O=C(Nc1cccc(Cl)c1)c1ccc(-c2ncccc2Cl)cc1 [Compound 1029] | + (compound exhibited 0-25% inhibition of calcium ion influx induced by capsaicin stimulation)
COc1ccccc1NC(=O)c1ccc(-c2ncccc2Cl)cc1 [Compound 1030] | ++++ (compound exhibited 75% or greater inhibition of calcium ion influx induced by capsaicin stimulation)
O=C(Nc1ccccc1Cl)c1ccc(-c2ncccc2Cl)cc1 [Compound 1032] | + (compound exhibited 0-25% inhibition of calcium ion influx induced by capsaicin stimulation)
O=C(Nc1ccc(Cl)cc1Cl)c1ccc(-c2ncccc2Cl)cc1 [Compound 1033] | + (compound exhibited 0-25% inhibition of calcium ion influx induced by capsaicin stimulation)
COc1ccc(NC(=O)c2ccc(-c3ncccc3Cl)cc2)cc1Cl [Compound 1034] | + (compound exhibited 0-25% inhibition of calcium ion influx induced by capsaicin stimulation)
O=C(Nc1ccc(C(F)(F)F)cc1)c1ccc(-c2ncccc2Cl)cc1 [Compound 1035] | ++++ (compound exhibited 75% or greater inhibition of calcium ion influx induced by capsaicin stimulation)
O=C(Nc1ccc(Cl)c(C(F)(F)F)c1)c1ccc(-c2ncccc2Cl)cc1 [Compound 1037] | +++ (compound exhibited 50-75% inhibition of calcium ion influx induced by capsaicin stimulation)
O=C(Nc1cccc(Br)c1)c1ccc(-c2ncccc2Cl)cc1 [Compound 1038] | + (compound exhibited 0-25% inhibition of calcium ion influx induced by capsaicin stimulation)
N#Cc1cccc(NC(=O)c2ccc(-c3ncccc3Cl)cc2)c1 [Compound 1039] | + (compound exhibited 0-25% inhibition of calcium ion influx induced by capsaicin stimulation)
O=C(Nc1ccccc1CCO)c1ccc(-c2ncccc2Cl)cc1 [Compound 1040] | +++ (compound exhibited 50-75% inhibition of calcium ion influx induced by capsaicin stimulation)

Structure (SMILES) | % Inhibition @ 1 uM
CC(C)(C)c1ccc(NC(=O)c2ccc(-c3ncccc3Cl)cc2)cc1 [Compound 1041] | ++++ (compound exhibited 75% or greater inhibition of calcium ion influx induced by capsaicin stimulation)
CC(C)c1ccc(NC(=O)c2ccc(-c3ncccc3Cl)cc2)cc1 [Compound 1042] | ++++ (compound exhibited 75% or greater inhibition of calcium ion influx induced by capsaicin stimulation)
CCCCc1ccc(NC(=O)c2ccc(-c3ncccc3Cl)cc2)cc1 [Compound 1043] | ++ (compound exhibited 25-50% inhibition of calcium ion influx induced by capsaicin stimulation)
O=C(Nc1ccc(C2CCCCC2)cc1)c1ccc(-c2ncccc2Cl)cc1 [Compound 1044] | ++++ (compound exhibited 75% or greater inhibition of calcium ion influx induced by capsaicin stimulation)
COc1cc(NC(=O)c2ccc(-c3ncccc3Cl)cc2)cc(C(F)(F)F)c1 [Compound 1045] | ++ (compound exhibited 25-50% inhibition of calcium ion influx induced by capsaicin stimulation)
O=C(Nc1cccnc1Cl)c1ccc(-c2ncccc2Cl)cc1 [Compound 1047] | ++ (compound exhibited 25-50% inhibition of calcium ion influx induced by capsaicin stimulation)
O=C(Nc1ccc(Cl)nc1)c1ccc(-c2ncccc2Cl)cc1 [Compound 1048] | + (compound exhibited 0-25% inhibition of calcium ion influx induced by capsaicin stimulation)
COc1ccc(NC(=O)c2ccc(-c3ncccc3Cl)cc2)cn1 [Compound 1049] | + (compound exhibited 0-25% inhibition of calcium ion influx induced by capsaicin stimulation)
O=C(Nc1ccnc(Cl)c1)c1ccc(-c2ncccc2Cl)cc1 [Compound 1050] | ++++ (compound exhibited 75% or greater inhibition of calcium ion influx induced by capsaicin stimulation)
O=C(Nc1ccc2c(c1)OCO2)c1ccc(-c2ncccc2Cl)cc1 [Compound 1051] | + (compound exhibited 0-25% inhibition of calcium ion influx induced by capsaicin stimulation)
Cc1cc(NC(=O)c2ccc(-c3ncccc3Cl)cc2)nc(C)n1 [Compound 1052] | + (compound exhibited 0-25% inhibition of calcium ion influx induced by capsaicin stimulation)
O=C(Nc1ccc2c(c1)Cc1ccccc1-2)c1ccc(-c2ncccc2Cl)cc1 [Compound 1053] | ++ (compound exhibited 25-50% inhibition of calcium ion influx induced by capsaicin stimulation)
Cc1cc(C)nc(NC(=O)c2ccc(-c3ncccc3Cl)cc2)c1 [Compound 1054] | + (compound exhibited 0-25% inhibition of calcium ion influx induced by capsaicin stimulation)
O=C(Nc1nccs1)c1ccc(-c2ncccc2Cl)cc1 [Compound 1055] | + (compound exhibited 0-25% inhibition of calcium ion influx induced by capsaicin stimulation)
CC(C)(CO)NC(=O)c1ccc(-c2ncccc2Cl)cc1 [Compound 1058] | + (compound exhibited 0-25% inhibition of calcium ion influx induced by capsaicin stimulation)
CN(C)c1cccc(NC(=O)c2ccc(-c3ncccc3Cl)cc2)c1 [Compound 1060] | ++++ (compound exhibited 75% or greater inhibition of calcium ion influx induced by capsaicin stimulation)
CCN(CC)c1ccc(NC(=O)c2ccc(-c3ncccc3Cl)cc2)cc1 [Compound 1061] | ++++ (compound exhibited 75% or greater inhibition of calcium ion influx induced by capsaicin stimulation)
O=C(Nc1ccc(N2CCOCC2)cc1)c1ccc(-c2ncccc2Cl)cc1 [Compound 1062] | + (compound exhibited 0-25% inhibition of calcium ion influx induced by capsaicin stimulation)
